Measured values: PubChem BioAssay AID248 (DTP/NCI, 2004)
Several values for one entry are separate records, joined by “and”; a condition that tells them apart may be missing. Equal entries are not always repeated. Toxic doses and inconclusive results are not listed. No stated cut-off is given here; in the data, active means T/C of 150% or more; inactive means T/C below 125%.

System: L1210 leukemia ip in BDF1 mice, survival T/C
Assay: NCI In Vivo Anticancer Drug Screen. Data for tumor model L1210 Leukemia (intraperitoneal) in B6D2F1 (BDF1) mice
Conditions: endpoint: mean survival time, higher = longer survival
Procedure, shortened: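 Transplanted-tumor mice were given test agent; controls received vehicle only. Survival readings from the two groups were divided (treated over control).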

[1] = dose: 100.0 mg/kg/injection, schedule: Q04DX003 (ip), vehicle: saline with Tween-80
[2] = dose: 200.0 mg/kg/injection, schedule: Q04DX003 (ip), vehicle: saline with Tween-80
[3] = dose: 400.0 mg/kg/injection, schedule: Q04DX003 (ip), vehicle: saline with Tween-80
[4] = dose: 100.0 mg/kg/injection, schedule: Q01DX009 (ip), vehicle: saline
[5] = dose: 200.0 mg/kg/injection, schedule: Q01DX009 (ip), vehicle: saline
[6] = dose: 100.0 mg/kg/injection, schedule: Q01DX009 (ip), vehicle: Klucel (hydroxypropylcellulose) (HPC)
[7] = dose: 200.0 mg/kg/injection, schedule: Q01DX009 (ip), vehicle: Klucel (hydroxypropylcellulose) (HPC)
[8] = dose: 400.0 mg/kg/injection, schedule: Q01DX009 (ip), vehicle: Klucel (hydroxypropylcellulose) (HPC)
[9] = dose: 100.0 mg/kg/injection, schedule: Q01DX001 (ip), vehicle: saline
[10] = dose: 200.0 mg/kg/injection, schedule: Q01DX001 (ip), vehicle: saline
[11] = dose: 400.0 mg/kg/injection, schedule: Q01DX001 (ip), vehicle: saline
[12] = dose: 100.0 mg/kg/injection, schedule: Q04DX003 (ip), vehicle: saline
[13] = dose: 200.0 mg/kg/injection, schedule: Q04DX003 (ip), vehicle: saline

Measured: T/C

CC(=O)OC1CCC2(C)C3CCC4(C)C(CC5OC54C(C)=O)C3CC3OC32C1 (stereo not drawn)
inactive: dose: 50.0 mg/kg/injection, schedule: Q01DX001 (sc), vehicle: steriod suspending solution 97 % of control | dose: 100.0 mg/kg/injection, schedule: Q01DX001 (sc), vehicle: steriod suspending solution 101 % of control | dose: 200.0 mg/kg/injection, schedule: Q01DX001 (sc), vehicle: steriod suspending solution 106 % of control | dose: 400.0 mg/kg/injection, schedule: Q01DX001 (sc), vehicle: steriod suspending solution 113 % of control

CC(C)N(C(=O)Nc1cc([N+](=O)[O-])ccc1Cl)c1ccccc1
inactive: dose: 12.5 mg/kg/injection, schedule: Q01DX009 (ip), vehicle: Klucel (hydroxypropylcellulose) (HPC) 89 % of control | dose: 25.0 mg/kg/injection, schedule: Q01DX009 (ip), vehicle: Klucel (hydroxypropylcellulose) (HPC) 96 % of control | dose: 50.0 mg/kg/injection, schedule: Q01DX009 (ip), vehicle: Klucel (hydroxypropylcellulose) (HPC) 98 % of control

S=c1c2[nH]cnc2ncn1C1CCCCC1
inactive: dose: 4.4 mg/kg/injection, schedule: Q01DX009 (ip), vehicle: saline with Tween-80 96 % of control | dose: 6.7 mg/kg/injection, schedule: Q01DX009 (ip), vehicle: saline with Tween-80 102 % of control | dose: 10.0 mg/kg/injection, schedule: Q01DX009 (ip), vehicle: saline with Tween-80 90 % of control | dose: 15.0 mg/kg/injection, schedule: Q01DX009 (ip), vehicle: saline with Tween-80 95 % of control

COC(=O)C1C2CCC(C2)C1C (stereo not drawn)
inactive: dose: 25.0 mg/kg/injection, schedule: Q04DX003 (ip), vehicle: saline with Tween-80 101 % of control | dose: 50.0 mg/kg/injection, schedule: Q04DX003 (ip), vehicle: saline with Tween-80 97 % of control | [1] 94 % of control

COc1cc(-c2ccc(NC(=O)CC(C)=O)c(OC)c2)ccc1NC(=O)CC(C)=O
inactive: dose: 100.0 mg/kg/injection, schedule: Q01DX009 (ip), vehicle: saline with Tween-80 94 % of control | [1] 92 % of control | dose: 200.0 mg/kg/injection, schedule: Q01DX009 (ip), vehicle: saline with Tween-80 101 % of control | [2] 91 % of control | dose: 400.0 mg/kg/injection, schedule: Q01DX009 (ip), vehicle: saline with Tween-80 99 % of control | [3] 89 % of control

COc1cc(N[Si](C)(C)C)nc(OC)n1
inactive: dose: 50.0 mg/kg/injection, schedule: Q01DX009 (ip), vehicle: saline 100 % of control | [4] 96 % of control | [5] 92 % of control

COc1ccc(NC(=O)Oc2ccc(NC(C)=O)cc2)c(OC)c1
inactive: [6] 95 % of control | [7] 97 % of control | [8] 92 % of control

CCCCCc1cc(O)c(CCCC)c(O)c1
inactive: dose: 6.25 mg/kg/injection, schedule: Q04DX002 (ip), vehicle: other 97 % of control | dose: 12.5 mg/kg/injection, schedule: Q04DX002 (ip), vehicle: other 110 % of control | dose: 25.0 mg/kg/injection, schedule: Q04DX002 (ip), vehicle: other 93 % of control | dose: 50.0 mg/kg/injection, schedule: Q04DX002 (ip), vehicle: other 93 % of control

CC1CCC(C(=O)O)(C(=O)NC(N)=O)CC1C (stereo not drawn)
inactive: dose: 100.0 mg/kg/injection, schedule: Q01DX001 (ip), vehicle: steriod suspending solution 93 % of control | dose: 200.0 mg/kg/injection, schedule: Q01DX001 (ip), vehicle: steriod suspending solution 110 % of control | dose: 400.0 mg/kg/injection, schedule: Q01DX001 (ip), vehicle: steriod suspending solution 114 % of control

CCN(CCC#N)C(=S)Nc1ccc(C)c(C)c1
inactive: dose: 100.0 mg/kg/injection, schedule: Q04DX002 (ip), vehicle: saline with Tween-80 89 % of control | dose: 200.0 mg/kg/injection, schedule: Q04DX002 (ip), vehicle: saline with Tween-80 108 % of control | dose: 400.0 mg/kg/injection, schedule: Q04DX002 (ip), vehicle: saline with Tween-80 86 % of control

Cc1cc(C)[n+]([O-])c(C)c1[N+](=O)[O-]
inactive: [9] 101 % of control | [10] 101 % of control

O=S(=O)(CC(O)(c1ccccc1)c1ccccc1)CC(O)(c1ccccc1)c1ccccc1
inactive: dose: 50.0 mg/kg/injection, schedule: Q01DX001 (ip), vehicle: saline 93 % of control | [9] 91 % of control | [10] 93 % of control | [11] 87 % of control

COc1cccc(C=O)c1[N+](=O)[O-]
inactive: dose: 100.0 mg/kg/injection, schedule: Q04DX002 (ip), vehicle: Klucel (hydroxypropylcellulose) (HPC) 104 % of control | dose: 200.0 mg/kg/injection, schedule: Q04DX002 (ip), vehicle: Klucel (hydroxypropylcellulose) (HPC) 108 % of control | dose: 400.0 mg/kg/injection, schedule: Q04DX002 (ip), vehicle: Klucel (hydroxypropylcellulose) (HPC) 97 % of control

CNCC(NC)c1cc(OC)c(OC)c(OC)c1 (stereo not drawn)
inactive: [12] 94 % of control | [13] 95 % of control | dose: 400.0 mg/kg/injection, schedule: Q04DX003 (ip), vehicle: saline 94 % of control

OC1C2(CCCCC2)CNC12C=CCCC2 (stereo not drawn)
inactive: dose: 75.0 mg/kg/injection, schedule: Q01DX001 (ip), vehicle: saline 98 % of control | dose: 150.0 mg/kg/injection, schedule: Q01DX001 (ip), vehicle: saline 97 % of control

O=C(Nc1ccccc1C(F)(F)F)OCc1ccco1
inactive: dose: 100.0 mg/kg/injection, schedule: Q01DX001 (ip), vehicle: gum acacia 102 % of control and 91 % of control | dose: 100.0 mg/kg/injection, schedule: Q01DX009 (ip), vehicle: gum acacia 100 % of control | dose: 100.0 mg/kg/injection, schedule: Q04DX002 (ip), vehicle: gum acacia 95 % of control and 101 % of control | dose: 100.0 mg/kg/injection, schedule: Q04DX003 (ip), vehicle: gum acacia 94 % of control and 99 % of control | dose: 200.0 mg/kg/injection, schedule: Q01DX001 (ip), vehicle: gum acacia 98 % of control and 105 % of control | dose: 200.0 mg/kg/injection, schedule: Q01DX009 (ip), vehicle: gum acacia 97 % of control | dose: 200.0 mg/kg/injection, schedule: Q04DX002 (ip), vehicle: gum acacia 99 % of control and 108 % of control | dose: 200.0 mg/kg/injection, schedule: Q04DX003 (ip), vehicle: gum acacia 96 % of control and 92 % of control | dose: 400.0 mg/kg/injection, schedule: Q01DX001 (ip), vehicle: gum acacia 94 % of control and 95 % of control | dose: 400.0 mg/kg/injection, schedule: Q01DX009 (ip), vehicle: gum acacia 105 % of control | dose: 400.0 mg/kg/injection, schedule: Q04DX002 (ip), vehicle: gum acacia 99 % of control and 101 % of control | dose: 400.0 mg/kg/injection, schedule: Q04DX003 (ip), vehicle: gum acacia 108 % of control and 92 % of control

Oc1c(CN2CCOCC2)cc(CN2CCOCC2)cc1CN1CCOCC1
inactive: [9] 116 % of control | [4] 95 % of control | [1] 104 % of control | [10] 98 % of control | [5] 90 % of control | [2] 95 % of control | [11] 96 % of control | dose: 400.0 mg/kg/injection, schedule: Q01DX009 (ip), vehicle: saline 100 % of control | [3] 98 % of control

COc1ccc(OC)c(NC(=O)Nc2ccc(C(=O)O)c(O)c2)c1
inactive: [6] 91 % of control | [7] 103 % of control | [8] 97 % of control

NC(=O)c1ccc[n+](CC(=O)NCc2ccccc2)c1
inactive: [12] 96 % of control | [13] 93 % of control

CC(=O)N(CCN(C)C)Cc1ccccc1
inactive: [9] 98 % of control | [10] 98 % of control
